Reference: patent US7132417B2, “2-phenyl-1-[4-(2-aminoethoxy)-benzyl]-indoles as estrogenic agents” (Wyeth, priority 1996, dated 2006)
Counter-ions that a name gives are not always drawn.

Tests used:
estrogen receptor [1] = target: T1, estrogen receptor (Homo sapiens, UniProt P03372); assay: In vitro estrogen receptor binding assay ([3H]-17β-estradiol competition); set-up: expressed in transfected cells; host or cells: CHO cells (100,000 g cytosol); settings: read-out: Receptor Binding IC50's
T1 sequence (P03372 1-595): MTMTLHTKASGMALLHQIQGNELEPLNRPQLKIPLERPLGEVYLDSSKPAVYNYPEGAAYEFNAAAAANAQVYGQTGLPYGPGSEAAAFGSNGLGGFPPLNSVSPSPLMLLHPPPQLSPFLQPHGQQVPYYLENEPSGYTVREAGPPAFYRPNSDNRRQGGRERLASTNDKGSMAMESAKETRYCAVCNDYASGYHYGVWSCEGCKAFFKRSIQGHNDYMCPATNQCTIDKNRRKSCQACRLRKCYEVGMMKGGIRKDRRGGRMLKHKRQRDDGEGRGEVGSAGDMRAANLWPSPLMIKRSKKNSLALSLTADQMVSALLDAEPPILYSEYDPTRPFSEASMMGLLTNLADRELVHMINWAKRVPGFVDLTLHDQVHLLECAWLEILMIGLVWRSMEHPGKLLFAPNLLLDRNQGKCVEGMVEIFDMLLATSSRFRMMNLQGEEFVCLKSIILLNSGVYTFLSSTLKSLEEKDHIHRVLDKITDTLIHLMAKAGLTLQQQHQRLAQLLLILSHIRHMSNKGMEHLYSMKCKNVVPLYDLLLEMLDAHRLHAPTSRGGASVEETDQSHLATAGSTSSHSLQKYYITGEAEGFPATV
Description: In Vitro Estrogen Receptor Binding Assay
CHO cells overexpressing the estrogen receptor were grown in 150 mm^2 dishes in DMEM+10% dextran coated charcoal, stripped fetal bovine serum. The plates were washed twice with PBS and once with 10 mM Tris-HCl, pH 7.4, 1 mM EDTA. Cells were harvested by scraping the surface and then the cell suspension was placed on ice. Cells were disrupted with a hand-held motorized tissue grinder using two, 10-second bursts. […] The cytosol was then frozen and stored at −80° C. Protein concentration of the cytosol was estimated using the BCA assay with reference standard protein.
100 uG/100 uL of the receptor preparation was aliquoted per well. […] The plate was incubated at room temperature for 2.5 h. […] 200 uL of the supernatant solution was then removed for scintillation counting. Samples were counted to 2% or 10 minutes, whichever occurs first. […] Also, wells containing radioactivity but no cytosol were processed with charcoal to estimate unremovable DPM of [^3H]
Counts per minute (CPM) of radioactivity were automatically converted to disintegrated per minute (DPM) by the Beckman LS 7500 Scintillation Counter using a set of quenched standards to generate a H No. for each sample.
For the generation of IC50 curves, % binding is plotted vs compound. […] For a description of these methods, see Hulme, E. C., ed. […] Receptor-Ligand Interactions: A Practical Approach. IRL Press, New York. (see especially chapter 8).

estrogen receptor [2] = target: T1, estrogen receptor; assay: 2X VIT ERE infection (luciferase) assay; format: cell-based; set-up: expressed in transfected cells; host or cells: Chinese Hamster Ovary cells (CHO), stably transfected; settings: for Infection Luciferase Activity 1 uM + 17β estradiol: 1 uM compound + 1 nM 17β-estradiol (test for estrogen antagonism); for Infection Luciferase Activity 1 uM: 1 uM compound, percentage of activity as compared to 17β-estradiol
Description: Method No. 18 2X VIT ERE Infection Assay Cell Maintenance and Treatment
Chinese Hamster Ovary cells (CHO) which had been stably transfected with the human estrogen receptor were maintained in DMEM+10% fetal bovine serum (FBS). 48 h prior to treatment the growth medium was replaced with DMEM lacking phenol red +10% dextran coated charcoal stripped FBS (treatment medium). Cells were plated at a density of 5000 cells/well in 96-well plates containing 200 µL of medium/well.
Reporter DNA (Promega plasmid pGL2 containing two tandem copies of the vitellogenin ERE in front of the minimal thymidine kinase promoter driving the luciferase gene) was combined with the B-galactosidase expression plasmid pCH110 (Pharmacia) and carrier DNA (pTZ18U) in the following ratio:
20 uL of this mixture was added to each well of cells and remained on the cells for 16 h. […] Each treatment condition was performed on 8 wells (n=8) which were incubated for 24 h prior to the luciferase assay.
After removing the PBS, 25 uL of Promega lysis buffer was added to each well and allowed to stand at room temperature for 15 min, followed by 15 min at −80° C. and 15 min at 37° C. 20 uL of lysate was transferred to an opaque 96 well plate for luciferase activity evaluation and the remaining lysate (5 uL) was used for the B-galactosidase activity evaluation (normalize transfection). The luciferan substrate (Promega) was added in 100 uL aliquots to each well automatically by the luminometer and the light produced (relative light units) was read 10 seconds after addition.
To the remaining 5 uL of lysate 45 uL of PBS was added. Then 50 uL of Promega B-galactosidase 2× assay buffer was added, mixed well and incubated at 37° C. for 1 hour. A plate containing a standard curve (0.1 to 1.5 milliunits in triplicate) was set up for each experimental run. The plates were analyzed on a Molecular Devices spectrophotometric plate reader at 410 nm. The optical densities for the unknown were converted to milliunits of activity by mathematical extrapolation from the standard curve.
The luciferase data was generated as relative light units (RLUs) accumulated during a 10 second measurement and automatically transferred to a JMP (SAS Inc) file where background RLUs were subtracted. The B-galactosidase values were automatically imported into the file and these values were divided into the RLUs to normalize the data. The mean and standard deviations were determined from a n=8 for each treatment. […] These techniques are described by Tzukerman, M. T., Esty, A., Santiso-Mere, D., Danielian, P., Parker, M. G., Stein, R. B., Pike, J. W. and McDonnel, D. P. (1994).

| SMILES | IC50 (estrogen receptor [1]) [nM] | Infection Luciferase Activity 1 uM + 17β estradiol (estrogen receptor [2]) [%] | Infection Luciferase Activity 1 uM (estrogen receptor [2]) [%] |
| --- | --- | --- | --- |
| Cc1c(-c2cccc(O)c2)n(Cc2ccc(OCCN3CCCCC3)cc2)c2ccc(O)cc12 [compound 127, 2-(3-Hydroxy-phenyl)-3-methyl-1-[4-(2-piperidin-1-yl-ethoxy)-benzyl]-1H-indol-5-ol] | 19 | – | – |
| COc1ccc2c(c1)c(C)c(-c1ccc(O)cc1)n2Cc1ccc(OCCN2CCCCC2)cc1 [compound 88, 4-{5-Methoxy-3-methyl-1-{4-[2-(piperidin-1-yl)-ethoxy]-benzyl}-1H-indol-2-yl}-phenol] | – | 44 | 4 |
| Cc1c(-c2ccc(F)cc2)n(Cc2ccc(OCCN3CCCCCC3)cc2)c2ccc(O)cc12 [compound 117, 1-[4-(2-Azepan-1-yl-ethoxy)-benzyl]-2-(4-fluoro-phenyl)-3-methyl-1H-indol-5-ol] | – | 1 | 0 |
| CCOc1ccc(-c2c(C)c3cc(O)ccc3n2Cc2ccc(OCCN3CCCCC3)cc2)cc1 [compound 92, 2-(4-Ethoxy-phenyl)-3-methyl-1-[4-(2-piperidin-1-yl-ethoxy)-benzyl]-1H-indol-5-ol] | – | −2 | −4 |
| Cc1c(-c2ccc(O)cc2)n(Cc2ccc(OCCN3CCCCC3)cc2)c2ccccc12 [compound 86, 4-{3-Methyl-1-[4-(2-piperidin-1-yl-ethoxy)-benzyl]-1H-indol-2-yl}-phenol hydrochloride] | – | 2 | −5 |
| CCCCN(C)CCOc1ccc(Cn2c(-c3ccc(O)cc3)c(C)c3cc(O)ccc32)cc1 [compound 105, 1-{4-[2-(Butyl-methyl-amino)-ethoxy]-benzyl}-2-(4-hydroxy-phenyl)-3-methyl-1H-indol-5-ol] | 28 | – | – |
| Cc1c(-c2ccc(O)c(F)c2)n(Cc2ccc(OCCN3CCCCCC3)cc2)c2ccc(O)cc12 [compound 130, 2-(3-Fluoro-4-hydroxy-phenyl)-3-methyl-1-[4-(azepan-1-yl-ethoxy)-benzyl]-1H-indol-5-ol] | 13 | – | – |
| COc1ccc(-c2c(C)c3cc(O)ccc3n2Cc2ccc(OCCN3CCCCC3)cc2)c(OC)c1 [compound 126, 2-(2,4-Dimethoxy-phenyl)-3-methyl-1-[4-(2-piperidin-1-yl-ethoxy)-benzyl]-1H-indol-5-ol] | – | 0 | −1 |
| Cc1c(-c2ccc(O)cc2)n(Cc2ccc(OCCN3CCCCC3)cc2)c2ccc(F)cc12 [compound 94, 4-{5-Fluoro-3-methyl-1-[4-(2-piperidin-1-yl-ethoxy)-benzyl]-1H-indol-2-yl}-phenol] | – | 15 | −5 |
| COc1ccc(-c2c(C)c3cc(O)ccc3n2Cc2ccc(OCCN3CCCCC3)cc2)cc1 [compound 89, 2-(4-methoxy-phenyl)-3-methyl-1-{4-[2-(piperidin-1-yl)-ethoxy]-benzyl}-1H-indol-5-ol] | – | 18 | 16 |
| Cc1c(-c2ccc(O)cc2)n(Cc2ccc(OCCN3CCCC3)cc2)c2ccc(O)cc12 [compound 96, 2-(4-Hydroxy-phenyl)-3-methyl-1-[4-(2-pyrollidin-1-yl-ethoxy)-benzyl]-1H-indol-5-ol] | – | 8 | 12 |
| CCOc1ccc(-c2c(C)c3cc(O)ccc3n2Cc2ccc(OCCN3CCCCCC3)cc2)cc1 [compound 93, 1-[4-(2-Azepan-1-yl-ethoxy)-benzyl]-2-(4-ethoxy-phenyl)-3-methyl-1H-indol-5-ol] | – | −2 | −3 |
| Cc1c(-c2ccc(O)cc2)n(Cc2ccc(OCCN3CCCC(C)C3)cc2)c2ccc(O)cc12 (stereo not drawn) [compound 109, 2-(4-Hydroxy-phenyl)-3-methyl-1-{4-[2-(3-methyl-piperdin-1-yl)-ethoxy]-benzyl}-1H-indol-5-ol] | 170 | – | – |
| Oc1ccc(-c2c(Cl)c3cc(O)ccc3n2Cc2ccc(OCCN3CCCC3)cc2)cc1 [compound 133, 3-Chloro-2-(4-hydroxy-phenyl)-1-[4-(2-pyrrolidin-1-yl-ethoxy)-benzyl]-1H-indol-5-ol] | 4 | – | – |
| Cc1c(-c2ccc(C(F)(F)F)cc2)n(Cc2ccc(OCCN3CCCCC3)cc2)c2ccc(O)cc12 [compound 123, 3-Methyl-1-[4-(2-piperidin-1-yl-ethoxy)-benzyl]-2-(4-trifluoromethyl-phenyl)-1H-indol-5-ol] | 170 | – | – |
| Cc1c(-c2ccc(O)c(F)c2)n(Cc2ccc(OCCN3CCCCC3)cc2)c2ccc(O)cc12 [compound 129, 2-(3-Fluoro-4-hydroxy-phenyl)-3-methyl-1-[4-(2-piperidin-1-yl-ethoxy)-benzyl]-1H-indol-5-ol] | 5.5 | – | – |
| COc1cccc(-c2c(C)c3cc(O)ccc3n2Cc2ccc(OCCN3CCCCC3)cc2)c1 [compound 131, 2-(3-Methoxy-phenyl)-3-methyl-1-[4-(2-piperidin-1-yl-ethoxy)-benzyl]-1H-indole-5-ol] | 120 | – | – |
| N#Cc1c(-c2ccc(O)cc2)n(Cc2ccc(OCCN3CCCCC3)cc2)c2ccc(O)cc12 [compound 138, 5-Hydroxy-2-(4-Hydroxy-phenyl)-1-[4-(2-piperidin-1-yl-ethoxy)-benzyl]-1H-indole-3-carbonitrile] | 11 | – | – |
| Cc1c(-c2ccc(F)cc2)n(Cc2ccc(OCCN3CCCCC3)cc2)c2ccc(O)cc12 [compound 116, 2-(4-Fluoro-phenyl)-3-methyl-1-[4-(2-piperidine-1-yl-ethoxy)-benzyl]-1H-indol-5-ol] | – | 1 | −1 |
| COc1ccc(-c2c(C)c3cc(OC)ccc3n2Cc2ccc(OCCN3CCCCC3)cc2)cc1 [compound 90, 5-Methoxy-2-(4-methoxy-phenyl)-3-methyl-1-[4-(2-piperidin-1-yl-ethoxy)-benzyl]-1H-indole] | – | 58 | 3 |
| Cc1c(-c2ccc3c(c2)OCO3)n(Cc2ccc(OCCN3CCCCC3)cc2)c2ccc(O)cc12 [compound 119, 2-Benzo[1,3]dioxol-5-yl-3-methyl-1-[4-(2-piperidin-1-yl-ethoxy)-benzyl]-1H-indol-5-ol] | – | −1 | −1 |
